Reference: US20140271517A1, “DEODORANT FORMULATION” (priority 2013, published 2014)

Tests used:
[1] = reported pH of the agent; cited from earlier work
[2] = broad cross section of people; '16-20 hour protection and more'; previously presented in U.S. Pat. No. 5,512,274; cited from earlier work
[3] = system: microorganisms responsible for the odour in perspiration; test: destruction of odour-causing microorganisms; conditions: disinfectant agent in the MgO/ZnO deodorant formulation, 0.5% to 1% by weight
Text: It is believed that the previously recognized synergy between the zinc and magnesium compounds has been further augmented with the disinfection capacity of a potassium and/or […]. Turning to the specific formulations, in a first embodiment, the deodorant formulation includes magnesium oxide in an amount of between 1% and 2.5% by weight and zinc oxide in an amount of between 0.5% and 1.5% by weight. In order to further augment the efficacy of the formulation, a disinfectant agent is included. As an example, potassium sulfate in an amount of between 0.5% and 1% by weight. Propylene glycol in an amount between 45% and 57% by weight is included. Other polyols may be substituted such as glycenol, etc. Sodium stearate is also present in am amount between 4% and 8% by weight. Glycerin is also present in an amount from between 6% and 10% by weight. The balance of the formulation is obviously water. […] The provision for the suspension is very convenient, since the active ingredients are all present and this suspension can used as a precursor in the formulation of other deodorizing products.

SMILES | pH [1] | duration of deodorant protection [2] | efficacy in destroying the microorganisms responsible for the odour in perspiration [3]
[Ca+2].[OH-].[OH-] [Lime, calcium hydroxide] | ≥ 12.5 | – | –
[Mg+2].[OH-].[OH-] [magnesium hydroxide] | ~10.0 | 16 to 20 h | –
O=S(=O)([O-])[O-].[K+].[K+] [potassium sulfate] | – | – | particularly effective
